Measured values: patent publication US12378224B2 (Dong-A Socio Holdings Co., Ltd., priority 2016, dated 2025)

What follows are molecules tested against human MER (528-end) (Homo sapiens (Human), UniProt Q12866) (assay: HTRF Kinase Activity Biochemical Assay (KinEASE-TK)). Conditions: 10 uM ATP.
How it was run: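 Recombinant human MER (528-end) phosphorylated biotin-TK peptide substrate, 1 h at room temperature. Reaction stopped with detection buffer containing 0.375 nM Eu3+-cryptate anti-TK antibody and 0.062 uM streptavidin-XL665, 1 h further. Activity taken as HTRF ratio 665/620 nm ×10,000, 340 nm excitation.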

human MER (528-end), sequence (Q12866 528-999 limits assumed): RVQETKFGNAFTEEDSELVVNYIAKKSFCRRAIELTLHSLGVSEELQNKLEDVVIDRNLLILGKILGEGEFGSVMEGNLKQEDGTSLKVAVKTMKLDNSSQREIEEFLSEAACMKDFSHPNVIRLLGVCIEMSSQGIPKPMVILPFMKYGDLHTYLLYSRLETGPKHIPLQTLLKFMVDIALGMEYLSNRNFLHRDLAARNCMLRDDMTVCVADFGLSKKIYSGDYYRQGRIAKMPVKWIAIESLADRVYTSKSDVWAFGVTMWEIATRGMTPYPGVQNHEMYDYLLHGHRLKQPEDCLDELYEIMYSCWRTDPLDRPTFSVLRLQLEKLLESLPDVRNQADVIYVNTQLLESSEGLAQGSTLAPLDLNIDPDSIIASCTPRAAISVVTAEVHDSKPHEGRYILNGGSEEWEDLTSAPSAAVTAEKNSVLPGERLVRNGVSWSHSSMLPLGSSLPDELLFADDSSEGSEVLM

Compound	IC50
COC(=O)[C@H]1C[C@@H](NC(=O)c2cc(-c3cnn(C)c3)cnc2N)CN1C(=O)c1cccc(-c2ccccc2)c1 [Example 684, Methyl (2R,4R)-1-([1,1′-biphenyl]-3-carbonyl)-4-(2-amino-5-(1-methyl-1H-pyrazol-4-yl)nicotinamido)pyrrolidine-2-carboxylate]	> 1000 nM
CCNc1cc(OC(=O)N2CC[C@@H](NC(=O)c3cc(-c4cnn(C)c4)cnc3N)C2)ccc1C [Example 74, 3-(ethylamino)-4-methylphenyl (R)-3-(2-amino-5-(1-methyl-1H-pyrazol-4-yl)nicotinamido)pyrrolidine-1-carboxylate]	> 1000 nM
Cn1cc(-c2cnc(N)c(C(=O)N[C@@H]3CCN(C(=O)Oc4cccc(C(=O)N5CCCCC5)c4)C3)c2)cn1 [Example 55, 3-(piperidine-1-carbonyl)phenyl (R)-3-(2-amino-5-(1-methyl-1H-pyrazol-4-yl)nicotinamido)pyrrolidine-1-carboxylate]	> 1000 nM
Nc1ncc(-c2cnn(C3CCNCC3)c2)cc1C(=O)N[C@@H]1CCN(C(CO)c2ccccc2)C1 (stereo partly drawn) [Example 629, 2-amino-N-((3R)-1-(2-hydroxy-1-phenylethyl)pyrrolidin-3-yl)-5-(1-(piperidin-4-yl)-1H-pyrazol-4-yl)nicotinamide]	> 1000 nM
Nc1ncc(-c2cnn(C3CCNCC3)c2)cc1C(=O)N[C@@H]1CCN(Cc2ccc(F)c(Cl)c2)C1 [Example 158, (R)-2-amino-N-(1-(3-chloro-4-fluorobenzyl)pyrrolidin-3-yl)-5-(1-(piperidin-4-yl)-1H-pyrazol-4-yl)nicotinamide]	100 to 1000 nM
CC(C)c1ccc(C(=O)N2CC[C@@H](NC(=O)c3cc(-c4cnn(C)c4)cnc3N)C2)cc1 [Example 418, (R)-2-amino-N-(1-(4-isopropylbenzoyl)pyrrolidin-3-yl)-5-(1-methyl-1H-pyrazol-4-yl)nicotinamide]	> 1000 nM
Cn1cc(-c2cnc(N)c(C(=O)N[C@@H]3CCN(C(=O)c4ccc(C(C)(C)C)cc4)C3)c2)cn1 [Example 414, (R)-2-amino-N-(1-(4-(tert-butyl)benzoyl)pyrrolidin-3-yl)-5-(1-methyl-1H-pyrazol-4-yl)nicotinamide]	> 1000 nM
Cn1cc(-c2cnc(N)c(C(=O)N[C@@H]3CCN(C(=O)c4cccc5[nH]ccc45)C3)c2)cn1 [Example 504, (R)—N-(1-(1H-indole-4-carbonyl)pyrrolidin-3-yl)-2-amino-5-(1-methyl-1H-pyrazol-4-yl)nicotinamide]	> 1000 nM
CCN1CCC[C@@H]1CNCc1ccc(-c2cccc(OC(=O)N3CC[C@@H](NC(=O)c4cc(-c5cnn(C)c5)cnc4N)C3)c2)cc1 [Example 314, 4′-(((((R)-1-ethylpyrrolidin-2-yl)methyl)amino)methyl)-[1,1′-biphenyl]-3-yl (R)-3-(2-amino-5-(1-methyl-1H-pyrazol-4-yl)nicotinamido)pyrrolidine-1-carboxylate]	100 to 1000 nM
Nc1ncc(-c2cnn(C3CCNCC3)c2)cc1C(=O)N[C@@H]1CCN(CC2CC=CCC2)C1 (stereo partly drawn) [Example 169, 2-amino-N-((3R)-1-(cyclohex-3-en-1-ylmethyl)pyrrolidin-3-yl)-5-(1-(piperidin-4-yl)-1H-pyrazol-4-yl)nicotinamide]	> 1000 nM
CN(C)C1CCN(Cc2ccc(-c3cccc(OC(=O)N4CC[C@@H](NC(=O)c5cc(-c6cnn(C)c6)cnc5N)C4)c3)cc2)C1 (stereo partly drawn) [Example 311, 4′-((3-(dimethylamino)pyrrolidin-1-yl)methyl)-[1,1′-biphenyl]-3-yl (3R)-3-(2-amino-5-(1-methyl-1H-pyrazol-4-yl)nicotinamido)pyrrolidine-1-carboxylate]	100 to 1000 nM
Nc1ncc(-c2ccc(C(=O)N3CCOCC3)cc2)cc1C(=O)N[C@@H]1CCN(C(=O)Oc2cccc(-c3ccccc3)c2)C1 [Example 83, [1,1′-biphenyl]-3-yl (R)-3-(2-amino-5-(4-(morpholine-4-carbonyl)phenyl)nicotinamido)pyrrolidine-1-carboxylate]	100 to 1000 nM
Nc1ncc(-c2cnn(C3CCNCC3)c2)cc1C(=O)N[C@@H]1CCN(Cc2ccnc(Cl)c2)C1 [Example 631, (R)-2-amino-N-(1-((2-chloropyridin-4-yl)methyl)pyrrolidin-3-yl)-5-(1-(piperidin-4-yl)-1H-pyrazol-4-yl)nicotinamide]	> 1000 nM
Cn1cc(-c2cnc(N)c(C(=O)N[C@@H]3CCN(Cc4ccc(F)c(Br)c4)C3)c2)cn1 [Example 233, (R)-2-amino-N-(1-(3-bromo-4-fluorobenzyl)pyrrolidin-3-yl)-5-(1-methyl-1H-pyrazol-4-yl)nicotinamide]	> 1000 nM
Cn1cc(-c2cnc(N)c(C(=O)N[C@@H]3CCN(c4ccccn4)C3)c2)cn1 [Example 135, (R)-2-amino-5-(1-methyl-1H-pyrazol-4-yl)-N-(1-(pyridin-2-yl)pyrrolidin-3-yl)nicotinamide]	> 1000 nM
Nc1ncc(-c2cnn(C3CCNCC3)c2)cc1C(=O)N[C@@H]1CCN(Cc2c(Cl)cccc2Cl)C1 [Example 159, (R)-2-amino-N-(1-(2,6-dichlorobenzyl)pyrrolidin-3-yl)-5-(1-(piperidin-4-yl)-1H-pyrazol-4-yl)nicotinamide]	> 1000 nM

Further lines, results first:

IC50	Compound
100 to 1000 nM	CN1CCN(C(C)(C)c2ccc(-c3ccc(C(=O)N4CC[C@@H](NC(=O)c5cc(-c6cnn(C)c6)cnc5N)C4)cc3)cc2)CC1 [Example 386, (R)-2-amino-5-(1-methyl-1H-pyrazol-4-yl)-N-(1-(4′-(2-(4-methylpiperazin-1-yl)propan-2-yl)-[1,1′-biphenyl]-4-carbonyl)pyrrolidin-3-yl)nicotinamide]
100 to 1000 nM	Cn1cc(-c2cnc(N)c(C(=O)N[C@@H]3CCN(C(=O)c4ccc(-c5ccc(Cl)cc5)cc4)C3)c2)cn1 [Example 377, (R)-2-amino-N-(1-(4′-chloro-[1,1′-biphenyl]-4-carbonyl)pyrrolidin-3-yl)-5-(1-methyl-1H-pyrazol-4-yl)nicotinamide]
100 to 1000 nM	Cn1cc(-c2cnc(N)c(C(=O)N[C@@H]3CCN(C(=O)c4ccc(-c5c(Cl)cccc5Cl)cc4)C3)c2)cn1 [Example 368, (R)-2-amino-N-(1-(2′,6′-dichloro-[1,1′-biphenyl]-4-carbonyl)pyrrolidin-3-yl)-5-(1-methyl-1H-pyrazol-4-yl)nicotinamide]
100 to 1000 nM	Cn1cc(-c2cnc(N)c(C(=O)N[C@@H]3CCN(C(=O)Oc4cccc(-c5ccc(O)cc5)c4)C3)c2)cn1 [Example 279, 4′-hydroxy-[1,1′-biphenyl]-3-yl (R)-3-(2-amino-5-(1-methyl-1H-pyrazol-4-yl)nicotinamido)pyrrolidine-1-carboxylate]
> 1000 nM	Cn1cc(-c2cnc(N)c(C(=O)N[C@@H]3CCN(C(=O)c4cccc(-c5cccc(C(=O)O)c5)c4)C3)c2)cn1 [Example 456, (R)-3′-(3-(2-amino-5-(1-methyl-1H-pyrazol-4-yl)nicotinamido)pyrrolidine-1-carbonyl)-[1,1′-biphenyl]-3-carboxylic acid]
> 1000 nM	Cn1cc(-c2cnc(N)c(C(=O)N[C@@H]3CCN(Cc4ccc(-c5ccccc5)cc4)C3)c2)cn1 [Example 226, (R)—N-(1-([1,1′-biphenyl]-4-ylmethyl)pyrrolidin-3-yl)-2-amino-5-(1-methyl-1H-pyrazol-4-yl)nicotinamide]
100 to 1000 nM	Cn1cc(-c2cnc(N)c(C(=O)N[C@@H]3CCN(Cc4cccc(-c5cccc(CO)c5)c4)C3)c2)cn1 [Example 243, (R)-2-amino-N-(1-((3′-(hydroxymethyl)-[1,1′-biphenyl]-3-yl)methyl)pyrrolidin-3-yl)-5-(1-methyl-1H-pyrazol-4-yl)nicotinamide]
100 to 1000 nM	Cc1ccc(-c2ccc(C(=O)N3CC[C@@H](NC(=O)c4cc(-c5cnn(C)c5)cnc4N)C3)cc2O)s1 [Example 535, (R)-2-amino-N-(1-(3-hydroxy-4-(5-methylthiophen-2-yl)benzoyl)pyrrolidin-3-yl)-5-(1-methyl-1H-pyrazol-4-yl)nicotinamide]
> 1000 nM	CN1CCN(Cc2ccc(-c3ccc(/C=C/C(=O)N4CC[C@@H](NC(=O)c5cc(-c6cnn(C)c6)cnc5N)C4)cc3)cc2)CC1 [Example 432, (R,E)-2-amino-5-(1-methyl-1H-pyrazol-4-yl)-N-(1-(3-(4′-((4-methylpiperazin-1-yl)methyl)-[1,1′-biphenyl]-4-yl)acryloyl)pyrrolidin-3-yl)nicotinamide]
100 to 1000 nM	Cn1cc(-c2cnc(N)c(C(=O)N[C@@H]3CCN(C(=O)Oc4ccc(Oc5ccc(N)cc5)cc4)C3)c2)cn1 [Example 112, 4-(4-aminophenoxy)phenyl (R)-3-(2-amino-5-(1-methyl-1H-pyrazol-4-yl)nicotinamido)pyrrolidine-1-carboxylate]
100 to 1000 nM	Cn1cc(-c2cnc(N)c(C(=O)N[C@@H]3CCN(C(=O)c4ccc(-c5ccc(Cl)c(Cl)c5)cc4)C3)c2)cn1 [Example 362, (R)-2-amino-N-(1-(3′,4′-dichloro-[1,1′-biphenyl]-4-carbonyl)pyrrolidin-3-yl)-5-(1-methyl-1H-pyrazol-4-yl)nicotinamide]
> 1000 nM	CN1CCN(CCc2ccc(-c3cccc(C(=O)N4CC[C@@H](NC(=O)c5cc(-c6cnn(C)c6)cnc5N)C4)c3)cc2)CC1 [Example 455, (R)-2-amino-5-(1-methyl-1H-pyrazol-4-yl)-N-(1-(4′-(2-(4-methylpiperazin-1-yl)ethyl)-[1,1′-biphenyl]-3-carbonyl)pyrrolidin-3-yl)nicotinamide]
> 1000 nM	Cn1cc(-c2cnc(N)c(C(=O)N[C@@H]3CCN(C(=O)c4ccc(-c5ccccc5)cn4)C3)c2)cn1 [Example 396, (R)-2-amino-5-(1-methyl-1H-pyrazol-4-yl)-N-(1-(5-phenylpicolinoyl)pyrrolidin-3-yl)nicotinamide]
> 1000 nM	Cn1cc(-c2cnc(N)c(C(=O)N[C@@H]3CCN(C(=O)c4cc5ccccc5o4)C3)c2)cn1 [Example 401, (R)-2-amino-N-(1-(benzofuran-2-carbonyl)pyrrolidin-3-yl)-5-(1-methyl-1H-pyrazol-4-yl)nicotinamide]
